The target of experiment [1] is T1, Mss51 (Saccharomyces cerevisiae, UniProt P32335).
T1 sequence (P32335 1-436): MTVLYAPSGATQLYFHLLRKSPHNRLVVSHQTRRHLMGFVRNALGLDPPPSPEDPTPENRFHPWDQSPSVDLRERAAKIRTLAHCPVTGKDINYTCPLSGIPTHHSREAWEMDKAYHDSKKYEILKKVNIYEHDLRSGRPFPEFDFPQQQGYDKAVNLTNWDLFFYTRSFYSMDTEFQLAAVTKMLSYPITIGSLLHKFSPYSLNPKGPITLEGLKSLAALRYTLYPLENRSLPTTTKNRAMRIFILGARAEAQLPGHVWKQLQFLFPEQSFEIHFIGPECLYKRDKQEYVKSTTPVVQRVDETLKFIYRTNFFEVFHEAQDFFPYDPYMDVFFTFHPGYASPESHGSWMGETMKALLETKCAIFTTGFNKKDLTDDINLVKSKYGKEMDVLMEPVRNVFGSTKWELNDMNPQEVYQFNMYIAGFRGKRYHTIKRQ
The experiment can be described thus: difference UV-visible spectroscopy titration. The class given is binding.

For experiment [2], the target named is Mss51 (Saccharomyces cerevisiae, UniProt P32335, C85S). The experiment is described as follows: difference UV-visible spectroscopy titration. The class given is binding.

Each structure is given as a SMILES string.

Chain of Mss51 (Saccharomyces cerevisiae, UniProt P32335, C85S) (P32335 whole entry C85S): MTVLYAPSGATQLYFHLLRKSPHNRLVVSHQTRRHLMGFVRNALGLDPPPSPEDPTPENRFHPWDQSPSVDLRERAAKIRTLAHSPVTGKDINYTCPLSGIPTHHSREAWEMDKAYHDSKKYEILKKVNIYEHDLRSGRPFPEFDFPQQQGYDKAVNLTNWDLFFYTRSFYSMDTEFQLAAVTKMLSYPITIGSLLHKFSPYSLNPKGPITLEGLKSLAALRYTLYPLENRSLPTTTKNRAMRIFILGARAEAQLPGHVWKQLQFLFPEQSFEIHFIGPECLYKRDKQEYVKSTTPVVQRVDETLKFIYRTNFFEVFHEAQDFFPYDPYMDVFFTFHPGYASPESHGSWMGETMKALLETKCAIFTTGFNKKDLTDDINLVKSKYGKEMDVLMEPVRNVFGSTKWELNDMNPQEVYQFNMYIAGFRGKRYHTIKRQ

Take `C=CC1=C(C)C2=Cc3c(C=C)c(C)c4[n]3[Fe]([Cl])[n]3c(c(C)c(CCC(=O)O)c3=CC3=NC(=C4)C(C)=C3CCC(=O)O)=CC1=N2` [hemin]: the figures for the Kd at Mss51 [1] and on Mss51 [2] were ~445 nM and 324 ± 74 nM, respectively.

For orientation: Kd means the free concentration of one partner at which half of the binding sites on the other are occupied at equilibrium, for simple one-to-one binding. Read a high Kd as weaker binding.

The values are drawn from PMC3523284 (Cell metabolism, 2012).
